Here are results for 17 compounds from article PMC11280390, “Synthesis of Nitrostyrylthiazolidine-2,4-dione Derivatives Displaying Antileishmanial Potential” (Pharmaceuticals, 2024).

A word on the melting point: it is the temperature, or range, at which the solid turns liquid. `O=C(CN1C(=O)S/C(=C\c2cccc([N+](=O)[O-])c2)C1=O)Nc1ccccc1` [Compound 23c, (Z)-2-(5-(3-Nitrobenzylidene)thiazolidine-2,4-dion-3-yl)-N-phenylacetamide] showed a melting point of 255 to 257 °C. The value for `O=C(CN1C(=O)S/C(=C\c2ccccc2)C1=O)Nc1ccccc1` [Compound 23a] was 259 to 260 °C. The value for `NC(=O)CN1C(=O)S/C(=C\c2ccccc2[N+](=O)[O-])C1=O` [Compound 15b, (Z)-2-(5-(2-Nitrobenzylidene)thiazolidine-2,4-dion-3-yl)acetamide] was 233 to 235 °C.

`COc1cc(/C=C2\SC(=O)N(CC(=O)Nc3ccccc3Cl)C2=O)cc(OC)c1OC` [Compound 28e, (Z)-N-(2-Chlorophenyl)-2-(5-(3,4,5-trimethoxybenzylidene)thiazolidine-2,4-dion-3-yl)acetamide] registered a melting point of 222 to 223 °C.

With `COc1cc(/C=C2\SC(=O)N(CC(=O)c3ccccc3)C2=O)cc(OC)c1OC` [Compound 16e, (Z)-3-(2-Oxo-2-phenylethyl)-5-(3,4,5-trimethoxybenzylidene)thiazolidine-2,4-dione], the melting point fell in the range of 187 to 189 °C. In turn, `N#CCN1C(=O)S/C(=C\c2ccccc2[N+](=O)[O-])C1=O` [Compound 14b, (Z)-2-(5-(2-Nitrobenzylidene)thiazolidine-2,4-dion-3-yl)acetonitrile] gave a melting point of 119 to 120 °C. On to `CC(=O)CN1C(=O)S/C(=C\c2ccccc2[N+](=O)[O-])C1=O` [Compound 13b, (Z)-5-(2-Nitrobenzylidene)-3-(2-oxopropyl)thiazolidine-2,4-dione], for which the melting point fell in the range of 146 to 148 °C. `N#CCN1C(=O)S/C(=C\c2ccccc2)C1=O` [Compound 14a, (Z)-2-(5-Benzylidenethiazolidine-2,4-dion-3-yl)acetonitrile] displayed a melting point of 230 to 232 °C. The value for `CC(=O)CN1C(=O)S/C(=C\c2ccc([N+](=O)[O-])cc2)C1=O` [Compound 13d, (Z)-5-(4-Nitrobenzylidene)-3-(2-oxopropyl)thiazolidine-2,4-dione] was 207 to 209 °C; that for `COc1cc(/C=C2\SC(=O)N(CC(C)=O)C2=O)cc(OC)c1OC` [Compound 13e] was 139 to 140 °C. In the case of `CCOC(=O)CN1C(=O)S/C(=C\c2cc(OC)c(OC)c(OC)c2)C1=O` [Compound 12e] it was 145 to 147 °C.

Consider `COc1cc(/C=C2\SC(=O)N(CC(N)=O)C2=O)cc(OC)c1OC` [Compound 15e], for which the melting point is 274 to 275 °C (dec.). The value for `COc1cc(/C=C2\SC(=O)N(CC(=O)Nc3ccc([N+](=O)[O-])cc3)C2=O)cc(OC)c1OC` [Compound 26e, (Z)-N-(4-Nitrophenyl)-2-(5-(3,4,5-trimethoxybenzylidene)thiazolidine-2,4-dion-3-yl)acetamide] was 253 to 254 °C. The value for `COc1ccc(NC(=O)CN2C(=O)S/C(=C\c3ccc([N+](=O)[O-])cc3)C2=O)cc1` [Compound 25d, (Z)-N-(4-Methoxyphenyl)-2-(5-(4-nitrobenzylidene)thiazolidine-2,4-dion-3-yl)acetamide] was 254 to 256 °C; that for `NC(=O)CN1C(=O)S/C(=C\c2ccccc2)C1=O` [Compound 15a, (Z)-2-(5-Benzylidenethiazolidine-2,4-dion-3-yl)acetamide] was 229 to 231 °C; that for `O=C(CN1C(=O)S/C(=C\c2ccccc2)C1=O)Nc1ccccc1Cl` [Compound 28a, (Z)-2-(5-Benzylidenethiazolidine-2,4-dion-3-yl)-N-(2-chlorophenyl)acetamide] was 243 to 245 °C. In the case of `O=C(CN1C(=O)S/C(=C\c2ccc([N+](=O)[O-])cc2)C1=O)c1ccccc1` [Compound 16d, (Z)-5-(4-Nitrobenzylidene)-3-(2-oxo-2-phenylethyl)thiazolidine-2,4-dione] it was 232 to 233 °C.
